Tested on: ⍺4β7
Assay: SPR: inhibition by linear peptides of soluble ⍺4β7 binding to a MAdCAM-Ig surface
Conditions: Fig 7F, 7G
Excerpt: To determine if this is the case, we employed an SPR -based assay. Biosensor surfaces were coated with either CD4 D1D2 or a 42 aa cyclic V2 peptide derived from the subtype E 92TH023 gp120 (cV2 92TH023). A third surface coated with MAdCAM-Ig was employed as a positive control. Soluble ⍺4β7 was passed over these surfaces. We then evaluated the capacity of staggered 15 aa peptides that span either CD4 D2 or gp120 V2 to inhibit this interaction (Fig 7A).
Fig 7 Reciprocal inhibition of gp120 V2 and CD4 binding to ⍺4β7 by D2 and V2 peptides. SPR measurements of soluble ⍺4β7 (analyte) binding to biosensor surfaces coated with CD4 D1D2, 92TH023 cyclic peptide, or MAdCAM-Ig in the absence or presence of either CD4 D2 or gp120 V2 peptides, as indicated. (A) List of overlapping 15 aa peptides corresponding to residues 157–187 of CD4 and residues 158–192 of gp120 V2 (subtype B consensus sequence). (B) Binding of ⍺4β7 to sCD4 D1D2 +/- CD4 D2 peptides. X-axis indicates ⍺4β7 mass bound (RU) at the end of the association phase. (C) Binding of ⍺4β7 to 92TH023 +/- gp120 V2 peptides. (D) Binding of ⍺4β7 to sCD4 D1D2 +/- gp120 V2 peptides. (E) Binding of ⍺4β7 to 92TH023 +/- CD4 D2 peptides. […]
Experiments were performed using a Biacore 3000 instrument (Cytiva Life Sciences) using CM4 or CM5 sensor chips. The data were evaluated using BIAevaluation 4.1.1 software (Cytiva Life Sciences). […]

Which “inhibition of MAdCAM-Ig binding to ⍺4β7 (in words)” value does the source give for “QKKVEFKIDIVVLA [CD4 P42, linear CD4 D2 peptide, residues 165-178, G β-strand]” here?
The value was “inhibit MAdCAM-Ig binding to ⍺4β7”.

Reference: article PMC10732398 (PLOS Pathogens, 2023)
